Experimental data as given in patent US11452762B2, “Method of treating rhinitis with C-type natriuretic peptides” (IGISU Co., Ltd., priority 2009, dated 2022).
Entries after “also recorded” stand apart in the source; their conditions may differ.

Tests used:
[1] = tested on: patients with rhinitis, allergic rhinitis in particular; test: Administration tests of CNP, BNP or ANP nasal solution preparations in rhinitis patients (case studies); type: in vivo, human; details: for Symptom improvement (severity level before → after application): 50 μg/ml nasal solution, one spray (130 μl, 6.5 μg) in each nostril once or twice a day, each value one patient (Case); for Effect on nasal itching / tickling feeling (in words): 50 μg/ml twice a day; for Time after application until slight improvement in nasal itching: initial application; for Overall effect on rhinitis symptoms (in words): patients with rhinitis, BNP versus ANP
Protocol: Diagnosis, evaluation of symptoms, and examination of the CNP nasal drop preparations, BNP nasal drop preparations and ANP nasal drop preparation were performed as follows. The subjects are patients in whom conventional external medicines such as steroids are not sufficiently effective, or patients in whom the use of steroids must be avoided due to local side effects such as nasal irritation and dryness. Diagnosis and treatment of these subjects were performed by the present applicant as a medical doctor. Severity evaluation of symptoms of allergic rhinitis was performed, in principle, in accordance with “Guidelines for medical care of nasal allergies, 2009 edition” (edited by the committee for creation of guidelines for medical care of nasal allergies), by classifying into 5 stages as shown below. Here, “mixed type” refers to the cases wherein both of the sneezing attack or rhinorrhea and the nasal occlusion were presented with the same severity. […] In the above table, evaluation scores for sneezing fit, rhinorrhea and nasal occlusion are as described in the table below. […] Administration tests of the nasal solution preparations of the present invention were performed by, in principle, spraying the CNP nasal solution, BNP nasal solution or ANP nasal solution used to fill a nasal spraying device twice a day at awakening time and before bedtime, with one spray in each nostril at each time. […] Prior to the application of CNP preparations, BNP preparations or ANP preparation, the subjects' history was obtained, scratch tests for allergens were performed and diagnosis was made.

pollen allergy = details: after 2 weeks of application, spraying once a day; cited from earlier work
[2] = 50 μg/ml, initial or continued application, listed as ANP nasal solution

## human ANP-28 [ANP nasal solution preparation]
[1]
  Symptom improvement (severity level before → after application): Severe → severe
  Effect on nasal itching / tickling feeling (in words): improved slightly.
  Overall effect on rhinitis symptoms (in words): no immediate effect was observed
[1]; listed as ANP nasal solution
  Symptom improvement (severity level before → after application): severe before the ANP application to still severe
  Effect on nasal itching / tickling feeling (in words): slightly improved
[1]; 50 μg/ml
  Time after application until slight improvement in nasal itching: At 1 hr later, a slight
[1]; 50 μg/ml, listed as ANP nasal solution
  Time after application until slight improvement in nasal itching: One hour later
[1]; 50 μg/ml, initial or continued application
  Effect on nasal occlusion (in words): sensation was not improved.
[1]; [2]
  Effect on nasal occlusion (in words): not improved; also recorded: no changes
  Effect on rhinorrhea / runny nose (in words): did not stop; also recorded: no changes; also recorded: not improved; also recorded: No improvement
[1]; 50 μg/ml, once or twice a day
  Number of nose blows under application: approximately 20 times a day
[1]; 50 μg/ml, one application, listed as ANP nasal solution
  Persistence of the effects of an application (in words): persistence was short
[1]; 50 μg/ml, subjective, listed as ANP nasal solution
  Time after application until nasal passages opened: 20 min
[1]; listed as ANP preparations
  Overall effect on rhinitis symptoms (in words): no improvements or worsening

## C[C@@H]1C[C@H]2[C@@H]3CCC4=CC(=O)C=C[C@]4(C)[C@@]3(Cl)[C@@H](O)C[C@]2(C)[C@@]1(OC(=O)c1ccco1)C(=O)CCl [Mometasone furoate hydrate]
Pollen allergy
  Degree of improvement in nasal occlusion: 30-40%
  Degree of improvement in overall symptoms: 40-50%

## CC[C@H](C)[C@@H]1NC(=O)[C@H](CCCNC(=N)N)NC(=O)[C@H](CC(=O)O)NC(=O)[C@H](CCSC)NC(=O)[C@H](CCCCN)NC(=O)[C@H](CCCNC(=N)N)NC(=O)CNC(=O)[C@H](Cc2ccccc2)NC(=O)[C@@H](NC(=O)CNC(=O)[C@H](CO)NC(=O)CNC(=O)[C@H](CCC(N)=O)NC(=O)[C@@H](NC(=O)[C@H](CCSC)NC(=O)[C@H](CCCCN)NC(=O)[C@@H]2CCCN2C(=O)[C@@H](N)CO)C(C)C)CSSC[C@@H](C(=O)N[C@@H](CCCCN)C(=O)N[C@H](C(=O)N[C@@H](CC(C)C)C(=O)N[C@@H](CCCN=C(N)N)C(=O)N[C@@H](CCCN=C(N)N)C(=O)N[C@@H](Cc2cnc[nH]2)C(=O)O)C(C)C)NC(=O)CNC(=O)[C@H](CC(C)C)NC(=O)CNC(=O)[C@H](CO)NC(=O)[C@H](CO)NC(=O)[C@H](CO)NC(=O)[C@H](CO)NC1=O [BNP nasal solution preparation, human BNP-32]
[1]; 50 μg/ml nasal spray
  Local irritation symptoms / side effects: later. No irritation
[1]; 50 μg/ml nasal spray, listed as BNP nasal solution
  Local irritation symptoms / side effects: local irritation symptoms did not occur; also recorded: no irritation symptoms were observed
[1]; 100 μg/ml nasal spray
  Local irritation symptoms / side effects: it does not exhibit such side effects
[1]; 200 μg/ml nasal spray, listed as BNP nasal solution
  Local irritation symptoms / side effects: no local irritation symptoms or feelings of discomfort

## CC[C@H](C)[C@@H]1NC(=O)[C@H](CCCNC(=N)N)NC(=O)[C@H](CC(=O)O)NC(=O)[C@H](CC(C)C)NC(=O)[C@H](CCCCN)NC(=O)[C@H](CC(C)C)NC(=O)CNC(=O)[C@H](Cc2ccccc2)NC(=O)[C@@H](NC(=O)CNC(=O)[C@H](CCCCN)NC(=O)[C@H](CO)NC(=O)[C@H](CC(C)C)NC(=O)CN)CSSC[C@@H](C(=O)O)NC(=O)CNC(=O)[C@H](CC(C)C)NC(=O)CNC(=O)[C@H](CO)NC(=O)[C@H](CCSC)NC(=O)[C@H](CO)NC(=O)CNC1=O [CNP nasal solution preparation, human CNP-22]
[1]; 100 μg/ml nasal spray
  Local irritation symptoms / side effects: side effects such as local irritation symptoms were not observed; also recorded: No local irritation symptoms were observed; also recorded: No local side effects such as irritation, as well as no systemic side effects such as drowsiness were observed; also recorded: without irritation or local side effects; also recorded: without any irritation symptoms
  Permeability of the nasal solution (in words): good and good permeability
